# Assay results reported in patent US9340590B2 (priority 2011, dated 2016).
# pIC50: −log10 of the molar value. Like-named read-outs stand apart in the source and are kept apart here. Positions of bridges follow the written chain, without caps; N, C: chain ends. Non-standard residues stand in square brackets, D forms with d. Residues, ends and D or L forms follow the SMILES beside them. 2Nal = N[C@@H](Cc1ccc2ccccc2c1)C(=O)O; Lys(Me2) = CN(C)CCCC[C@H](N)C(=O)O; Pra = C#CC[C@H](N)C(=O)O
# Experiments:
# Test in all cases: cell-based
# hNav1.5 = hNav1.5 (Homo sapiens, UniProt Q14524); conditions: IonWorks Quattro, read-out: IWQ Use Nav1.5
# hNav1.3 = hNav1.3 (Homo sapiens, UniProt Q9NY46); conditions: IonWorks Quattro, read-out: IWQ Use Nav1.3
# hNav1.7 = hNav1.7 (Homo sapiens, UniProt Q15858); format: cell-based
# [1] = clamped to −110 mV, depolarized to −10 mV, 5 min after compound, n=2
# Chain of hNav1.7 (Q15858 whole entry, looked up): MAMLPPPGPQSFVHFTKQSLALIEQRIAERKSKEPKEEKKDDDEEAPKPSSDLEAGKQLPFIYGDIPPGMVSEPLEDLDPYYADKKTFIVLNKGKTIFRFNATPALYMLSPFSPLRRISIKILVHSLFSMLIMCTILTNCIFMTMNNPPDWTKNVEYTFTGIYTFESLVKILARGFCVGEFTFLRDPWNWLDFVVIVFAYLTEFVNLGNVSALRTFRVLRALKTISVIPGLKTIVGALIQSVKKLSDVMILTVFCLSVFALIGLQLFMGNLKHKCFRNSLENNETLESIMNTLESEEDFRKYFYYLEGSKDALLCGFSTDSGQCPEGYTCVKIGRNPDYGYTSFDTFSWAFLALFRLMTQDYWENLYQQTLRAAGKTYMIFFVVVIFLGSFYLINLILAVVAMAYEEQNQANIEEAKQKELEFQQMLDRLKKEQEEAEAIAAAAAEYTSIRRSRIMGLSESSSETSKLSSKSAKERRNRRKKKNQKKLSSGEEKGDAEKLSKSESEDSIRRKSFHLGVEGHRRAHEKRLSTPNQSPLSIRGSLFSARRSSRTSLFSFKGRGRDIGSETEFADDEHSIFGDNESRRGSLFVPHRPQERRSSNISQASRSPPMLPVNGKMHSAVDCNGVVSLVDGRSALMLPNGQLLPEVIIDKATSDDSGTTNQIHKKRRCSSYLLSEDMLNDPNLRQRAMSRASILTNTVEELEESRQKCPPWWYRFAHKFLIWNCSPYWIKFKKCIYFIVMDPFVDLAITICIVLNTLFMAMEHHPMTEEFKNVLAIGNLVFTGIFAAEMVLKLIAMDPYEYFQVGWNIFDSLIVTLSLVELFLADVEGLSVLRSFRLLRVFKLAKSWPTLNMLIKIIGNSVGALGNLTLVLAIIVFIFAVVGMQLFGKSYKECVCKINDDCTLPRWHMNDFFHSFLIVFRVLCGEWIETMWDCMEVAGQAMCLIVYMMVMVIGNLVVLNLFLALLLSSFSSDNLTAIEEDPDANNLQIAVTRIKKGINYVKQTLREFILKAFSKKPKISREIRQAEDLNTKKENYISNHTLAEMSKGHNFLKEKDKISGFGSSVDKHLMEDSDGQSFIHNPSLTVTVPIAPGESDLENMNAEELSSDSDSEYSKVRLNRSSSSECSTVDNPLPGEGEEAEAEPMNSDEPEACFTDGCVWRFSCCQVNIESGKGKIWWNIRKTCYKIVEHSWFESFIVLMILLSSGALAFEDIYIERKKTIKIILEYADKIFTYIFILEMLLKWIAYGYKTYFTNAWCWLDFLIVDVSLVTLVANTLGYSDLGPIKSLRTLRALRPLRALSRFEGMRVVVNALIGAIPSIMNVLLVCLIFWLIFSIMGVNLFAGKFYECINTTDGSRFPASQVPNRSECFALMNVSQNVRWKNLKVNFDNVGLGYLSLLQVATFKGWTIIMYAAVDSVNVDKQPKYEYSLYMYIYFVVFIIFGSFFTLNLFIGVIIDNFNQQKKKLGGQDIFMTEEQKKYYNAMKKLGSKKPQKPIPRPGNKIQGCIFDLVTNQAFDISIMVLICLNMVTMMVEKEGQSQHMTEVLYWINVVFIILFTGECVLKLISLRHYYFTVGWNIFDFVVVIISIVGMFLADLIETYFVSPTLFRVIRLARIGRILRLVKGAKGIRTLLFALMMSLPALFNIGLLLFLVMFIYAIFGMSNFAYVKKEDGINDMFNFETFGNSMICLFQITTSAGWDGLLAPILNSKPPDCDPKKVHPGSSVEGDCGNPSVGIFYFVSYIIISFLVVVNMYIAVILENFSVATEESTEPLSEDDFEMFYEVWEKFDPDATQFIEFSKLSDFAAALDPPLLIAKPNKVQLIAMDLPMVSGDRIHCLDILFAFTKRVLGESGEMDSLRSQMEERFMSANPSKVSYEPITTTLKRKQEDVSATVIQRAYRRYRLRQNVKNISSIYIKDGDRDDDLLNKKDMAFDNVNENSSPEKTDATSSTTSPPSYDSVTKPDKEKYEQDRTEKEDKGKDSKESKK
# Chain of hNav1.5 (Q14524 whole entry, looked up): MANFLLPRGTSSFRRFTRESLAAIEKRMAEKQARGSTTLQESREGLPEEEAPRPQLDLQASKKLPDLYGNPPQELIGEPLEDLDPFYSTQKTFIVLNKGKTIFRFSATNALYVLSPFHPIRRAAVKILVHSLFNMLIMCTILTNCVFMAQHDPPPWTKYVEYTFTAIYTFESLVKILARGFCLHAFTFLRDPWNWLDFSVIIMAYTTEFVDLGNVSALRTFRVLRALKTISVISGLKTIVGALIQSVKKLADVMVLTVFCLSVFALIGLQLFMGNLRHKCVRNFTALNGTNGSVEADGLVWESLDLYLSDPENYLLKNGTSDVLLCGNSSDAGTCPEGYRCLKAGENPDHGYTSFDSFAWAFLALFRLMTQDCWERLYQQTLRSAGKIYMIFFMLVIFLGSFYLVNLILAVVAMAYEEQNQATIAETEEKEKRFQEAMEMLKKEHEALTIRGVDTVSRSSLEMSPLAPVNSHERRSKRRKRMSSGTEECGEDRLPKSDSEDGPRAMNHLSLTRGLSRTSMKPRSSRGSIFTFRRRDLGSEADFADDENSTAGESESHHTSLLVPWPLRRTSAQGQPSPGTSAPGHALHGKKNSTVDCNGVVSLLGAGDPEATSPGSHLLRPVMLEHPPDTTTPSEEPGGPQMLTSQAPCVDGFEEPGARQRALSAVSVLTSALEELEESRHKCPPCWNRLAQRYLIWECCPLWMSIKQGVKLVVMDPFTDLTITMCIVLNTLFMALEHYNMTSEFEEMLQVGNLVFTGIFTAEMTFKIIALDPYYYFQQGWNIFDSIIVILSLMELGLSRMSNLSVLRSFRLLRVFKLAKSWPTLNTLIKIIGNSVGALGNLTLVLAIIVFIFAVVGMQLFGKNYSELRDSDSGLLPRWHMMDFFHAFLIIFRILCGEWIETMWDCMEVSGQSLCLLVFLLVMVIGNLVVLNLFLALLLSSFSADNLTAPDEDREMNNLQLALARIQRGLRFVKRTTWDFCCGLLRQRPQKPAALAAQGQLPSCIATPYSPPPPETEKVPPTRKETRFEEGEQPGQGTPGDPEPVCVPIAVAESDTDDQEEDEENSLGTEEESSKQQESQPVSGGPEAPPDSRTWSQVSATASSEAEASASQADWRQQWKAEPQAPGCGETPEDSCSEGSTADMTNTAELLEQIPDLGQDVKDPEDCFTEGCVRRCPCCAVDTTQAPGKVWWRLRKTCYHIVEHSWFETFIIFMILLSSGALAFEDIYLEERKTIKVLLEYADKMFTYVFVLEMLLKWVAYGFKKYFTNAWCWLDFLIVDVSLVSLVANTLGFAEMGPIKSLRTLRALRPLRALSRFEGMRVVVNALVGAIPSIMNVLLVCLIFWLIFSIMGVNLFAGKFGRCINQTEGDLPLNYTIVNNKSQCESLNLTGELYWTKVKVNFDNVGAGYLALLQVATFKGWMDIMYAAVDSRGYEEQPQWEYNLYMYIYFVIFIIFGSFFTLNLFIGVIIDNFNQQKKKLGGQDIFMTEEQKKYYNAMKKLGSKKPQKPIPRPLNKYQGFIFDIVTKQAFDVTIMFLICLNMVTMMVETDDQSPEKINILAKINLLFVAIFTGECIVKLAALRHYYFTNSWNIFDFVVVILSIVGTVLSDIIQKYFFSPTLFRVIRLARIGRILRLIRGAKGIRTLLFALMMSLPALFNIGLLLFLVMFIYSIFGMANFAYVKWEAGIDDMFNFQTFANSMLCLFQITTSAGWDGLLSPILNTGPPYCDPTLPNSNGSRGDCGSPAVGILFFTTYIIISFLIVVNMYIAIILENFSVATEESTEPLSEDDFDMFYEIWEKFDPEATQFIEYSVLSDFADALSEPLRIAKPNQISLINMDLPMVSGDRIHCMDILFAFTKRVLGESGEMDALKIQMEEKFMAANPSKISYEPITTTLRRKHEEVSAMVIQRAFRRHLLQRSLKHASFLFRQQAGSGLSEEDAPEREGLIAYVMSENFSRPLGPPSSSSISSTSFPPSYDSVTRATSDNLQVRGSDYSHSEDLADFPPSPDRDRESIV
smiles,measurement,setting,value
"CC[C@H](C)[C@@H]1NC(=O)[C@@H]2CSSC[C@@H]3NC(=O)[C@H](C(C)C)NC(=O)[C@H](CC(C)C)NC(=O)[C@H](CC(N)=O)NC(=O)[C@@H]4CCCN4C(=O)[C@H](CCCNC(=N)N)NC(=O)[C@H](CSSC[C@H](NC(=O)[C@@H](N)CC(=O)O)C(=O)N[C@@H](CC(C)C)C(=O)NCC(=O)N[C@@H](Cc4ccccc4)C(=O)N[C@@H](CCSC)C(=O)N[C@@H](CCCNC(=N)N)C(=O)N[C@@H](CCCCN)C(=O)N2)NC(=O)[C@H](CSSC[C@@H](C(=O)N[C@@H](CCCCN)C(=O)N[C@@H](Cc2ccc(O)cc2)C(=O)N[C@H](C(=O)N[C@@H](Cc2ccccc2)C(N)=O)C(C)C)NC(=O)[C@H](Cc2c[nH]c4ccccc24)NC(=O)[C@H](CCCCN)NC(=O)[C@H](Cc2cnc[nH]2)NC(=O)[C@H]([C@@H](C)O)NC(=O)[C@H](C)NC(=O)[C@H](CO)NC3=O)NC(=O)[C@H](CCCCN)NC(=O)[C@H](CC(=O)O)NC(=O)[C@H](CC(N)=O)NC(=O)[C@H](CC(=O)O)NC(=O)[C@@H]2CCCN2C1=O [compound 9] (H-DCLGFMRKCIPDNDKCCRPNLVCSATHKWCKYVF-NH2; disulfide 2-17, 9-23, 16-30)",pIC50,hNav1.5; Use,4.73
same,pIC50,hNav1.3; Use,6.08
same,pIC50,hNav1.7,6.52
CC[C@H](C)[C@@H]1NC(=O)[C@@H]2CSSC[C@@H]3NC(=O)[C@H](C(C)C)NC(=O)[C@H](CC(C)C)NC(=O)[C@H](CC(N)=O)NC(=O)[C@@H]4CCCN4C(=O)[C@H](CCCNC(=N)N)NC(=O)[C@H](CSSC[C@H](NC(=O)[C@@H](N)CC(=O)O)C(=O)N[C@@H](CC(C)C)C(=O)NCC(=O)N[C@@H](C)C(=O)N[C@@H](CC(C)C)C(=O)N[C@@H](CCCNC(=N)N)C(=O)N[C@@H](CCCCN)C(=O)N2)NC(=O)[C@H](CSSC[C@@H](C(=O)N[C@@H](CCCCN)C(=O)N[C@@H](Cc2ccc(O)cc2)C(=O)N[C@H](C(=O)N[C@@H](Cc2ccccc2)C(=O)O)C(C)C)NC(=O)[C@H](Cc2c[nH]c4ccccc24)NC(=O)[C@H](CCC(=O)O)NC(=O)[C@H](Cc2c[nH]cn2)NC(=O)[C@H]([C@@H](C)O)NC(=O)[C@H](CCCNC(=N)N)NC(=O)[C@H](CO)NC3=O)NC(=O)[C@H](CCCCN)NC(=O)[C@H](CC(=O)O)NC(=O)[C@H](CC(N)=O)NC(=O)[C@H](CC(=O)O)NC(=O)[C@@H]2CCCN2C1=O [compound 855],pIC50,"hNav1.5; use-dependent block, hNav1.5",< 5.30
same,pIC50,"hNav1.3; use-dependent block, hNav1.3",< 5.30
same,pIC50,"hNav1.7; IonWorks Quattro, use-dependent block, hNav1.7, read-out: IWQ Use Nav1.7",< 5.30
"CC[C@H](C)[C@@H]1NC(=O)[C@@H]2CSSC[C@@H]3NC(=O)[C@H](C(C)C)NC(=O)[C@H](CC(C)C)NC(=O)[C@H](CC(N)=O)NC(=O)[C@@H]4CCCN4C(=O)[C@H](CCCNC(=N)N)NC(=O)[C@H](CSSC[C@H](NC(=O)[C@@H](N)CC(=O)O)C(=O)N[C@@H](CC(C)C)C(=O)NCC(=O)N[C@@H](Cc4ccccc4)C(=O)N[C@@H](CCSC)C(=O)N[C@@H](CCCNC(=N)N)C(=O)N[C@@H](CCCCN)C(=O)N2)NC(=O)[C@H](CSSC[C@@H](C(=O)N[C@@H](CCCCN)C(=O)N[C@@H](Cc2ccc(O)cc2)C(=O)N[C@H](C(=O)N[C@@H](Cc2ccccc2)C(N)=O)C(C)C)NC(=O)[C@H](Cc2c[nH]c4ccccc24)NC(=O)[C@H](CCCCN)NC(=O)[C@H](Cc2c[nH]cn2)NC(=O)[C@H]([C@@H](C)O)NC(=O)[C@H](CCCCN(C)C)NC(=O)[C@H](CO)NC3=O)NC(=O)[C@H](CCCCN)NC(=O)[C@H](CC(=O)O)NC(=O)[C@H](CC(N)=O)NC(=O)[C@H](CC(=O)O)NC(=O)[C@@H]2CCCN2C1=O [compound 335] (H-DCLGFMRKCIPDNDKCCRPNLVCS[Lys(Me2)]THKWCKYVF-NH2; disulfide 2-17, 9-23, 16-30)",pIC50,hNav1.5; Use,5.10
same,pIC50,hNav1.3; Use,6.96
same,pIC50,"hNav1.7; IonWorks Quattro, Use, read-out: IWQ Use Nav1.7",6.51
CC[C@H](C)[C@@H]1NC(=O)[C@@H]2CSSC[C@@H]3NC(=O)[C@H](C(C)C)NC(=O)[C@H](CC(C)C)NC(=O)[C@H](CC(N)=O)NC(=O)[C@@H]4CCCN4C(=O)[C@H](CCCNC(=N)N)NC(=O)[C@H](CSSC[C@H](NC(=O)[C@H](CC(=O)O)NC(=O)[C@@H](N)Cc4c[nH]c5ccccc45)C(=O)N[C@@H](CC(C)C)C(=O)NCC(=O)N[C@@H](Cc4ccccc4)C(=O)N[C@@H](CCSC)C(=O)N[C@@H](CCCNC(=N)N)C(=O)N[C@@H](CCCCN)C(=O)N2)NC(=O)[C@H](CSSC[C@@H](C(=O)N[C@@H](CCCCN)C(=O)N[C@@H](Cc2ccc(O)cc2)C(=O)N[C@H](C(=O)N[C@@H](Cc2ccccc2)C(N)=O)C(C)C)NC(=O)[C@H](Cc2c[nH]c4ccccc24)NC(=O)[C@H](CCCCN)NC(=O)[C@H](Cc2cnc[nH]2)NC(=O)[C@H]([C@@H](C)O)NC(=O)[C@H](CCCNC(=N)N)NC(=O)[C@H](CO)NC3=O)NC(=O)[C@H](CCCCN)NC(=O)[C@H](CC(=O)O)NC(=O)[C@H](CC(N)=O)NC(=O)[C@H](CC(=O)O)NC(=O)[C@@H]2CCCN2C1=O [SEQ ID NO: 106],pIC50,hNav1.5; [1],4.66
same,pIC50,hNav1.3; [1],6.60
same,pIC50,"hNav1.7; IonWorks Quattro, clamped to −110 mV, depolarized to −10 mV, 5 min after compound, n=2, read-out: IWQ Use Nav1.7",6.66
"C#CC[C@@H]1NC(=O)[C@H](CC(=O)O)NC(=O)[C@@H]2CCCN2C(=O)[C@H]([C@@H](C)CC)NC(=O)[C@@H]2CSSC[C@@H]3NC(=O)[C@H](C(C)C)NC(=O)[C@H](CC(C)C)NC(=O)[C@H](CC(N)=O)NC(=O)[C@@H]4CCCN4C(=O)[C@H](CCCNC(=N)N)NC(=O)[C@H](CSSC[C@H](NC(=O)[C@@H](N)CC(=O)O)C(=O)N[C@@H](CC(C)C)C(=O)NCC(=O)N[C@@H](C)C(=O)N[C@@H](Cc4ccccc4)C(=O)N[C@@H](CCCNC(=N)N)C(=O)N[C@@H](CCCCN)C(=O)N2)NC(=O)[C@H](CSSC[C@@H](C(=O)N[C@@H](CCCCN)C(=O)N[C@@H](Cc2ccc(O)cc2)C(=O)N[C@H](C(=O)N[C@@H](Cc2ccccc2)C(N)=O)C(C)C)NC(=O)[C@H](Cc2c[nH]c4ccccc24)NC(=O)[C@H](CCCNC(=N)N)NC(=O)[C@H](Cc2c[nH]cn2)NC(=O)[C@H](CC(C)C)NC(=O)[C@H](CCCNC(=N)N)NC(=O)[C@H](CO)NC3=O)NC(=O)[C@H](CCCCN)NC(=O)[C@H](CC(=O)O)NC1=O [compound 640] (H-DCLGAFRKCIPD[Pra]DKCCRPNLVCSRLHRWCKYVF-NH2; disulfide 2-17, 9-23, 16-30)",pIC50,"hNav1.5; use-dependent protocol, hNav1.5",< 5.30
same,pIC50,"hNav1.3; use-dependent protocol, hNav1.3",7.05
same,pIC50,"hNav1.7; IonWorks Quattro, use-dependent protocol, hNav1.7, read-out: IWQ Use Nav1.7",6.99
"CC[C@H](C)[C@@H]1NC(=O)[C@@H]2CSSC[C@@H]3NC(=O)[C@H](C(C)C)NC(=O)[C@H](CC(C)C)NC(=O)[C@H](CC(N)=O)NC(=O)[C@@H]4CCCN4C(=O)[C@H](CCCNC(=N)N)NC(=O)[C@H](CSSC[C@H](NC(=O)[C@@H](N)CC(=O)O)C(=O)N[C@@H](CC(C)C)C(=O)NCC(=O)N[C@@H](Cc4ccccc4)C(=O)N[C@@H](CCSC)C(=O)N[C@@H](CCCNC(=N)N)C(=O)N[C@@H](CCCCN)C(=O)N2)NC(=O)[C@H](CSSC[C@@H](C(=O)N[C@@H](CCCCN)C(=O)N[C@@H](Cc2ccc(O)cc2)C(=O)N[C@H](C(=O)N[C@@H](Cc2ccccc2)C(N)=O)C(C)C)NC(=O)[C@H](Cc2ccc4ccccc4c2)NC(=O)[C@H](CCCCN)NC(=O)[C@H](Cc2c[nH]cn2)NC(=O)[C@H]([C@@H](C)O)NC(=O)[C@H](CCCNC(=N)N)NC(=O)[C@H](CO)NC3=O)NC(=O)[C@H](CCCCN)NC(=O)[C@H](CC(=O)O)NC(=O)[C@H](CC(N)=O)NC(=O)[C@H](CC(=O)O)NC(=O)[C@@H]2CCCN2C1=O [SEQ ID NO: 129, [2-Nal29]GpTx-1] (H-DCLGFMRKCIPDNDKCCRPNLVCSRTHK[2Nal]CKYVF-NH2; disulfide 2-17, 9-23, 16-30)",pIC50,"hNav1.5; Table 24, use, […]",4.93
same,pIC50,"hNav1.3; Table 24, use, […]",6.14
same,pIC50,"hNav1.7; Table 24, IonWorks Quattro, use, […], read-out: IWQ Use Nav1.7",6.24
